# According to patent US20200277378A1, “COMBINATION THERAPIES” (Novartis AG, priority 2017, published 2020):
# Structures can show the parent of a compound that is named as a salt.
# B1: LAG525: LAG-3 inhibitor (Novartis), anti-LAG-3 antibody molecule (antibody, chains of the INN, looked up, V domains shown)
# VH: QVQLVQSGAEVKKPGASVKVSCKASGFTLTNYGMNWVRQARGQRLEWIGWINTDTGEPTYADDFKGRFVFSLDTSVSTAYLQISSLKAEDTAVYYCARNPPYYYGTNNAEAMDYWGQGTTVTVSS
# VL: DIQMTQSPSSLSASVGDRVTITCSSSQDISNYLNWYLQKPGQSPQLLIYYTSTLHLGVPSRFSGSGSGTEFTLTISSLQPDDFATYYCQQYYNLPWTFGQGTKVEIK
# What was measured:
# [1] = Clinical study of PDR001 in combination with a CXCR2 inhibitor (DLT evaluation); assay type: in vivo, human; details: PDR001 400 mg Q4W + CXCR2 inhibitor 75 mg BID 2 weeks on/2 week off; seven patients dosed, two completed 56-day DLT period
# Experimental: The primary objective of this study is to combine the PDR001 checkpoint inhibitor with the CXCR2 inhibitor, 6-chloro-3-((3,4-dioxo-2-(pentan-3-ylamino)cyclobut-1-en-1-yl)amino)-2-hydroxy-N-methoxy-N-methylbenzenesulfonamide choline salt, to identify the doses and schedule for combination therapy and to preliminarily assess the safety, tolerability, pharmacological and clinical activity of these combinations.
# Patients are dosed on a flat scale and not by body weight or body surface area. Dosing of the CXCR2 inhibitor occurs immediately after completion of the PDR001 infusion during clinic visits. Patients are treated with 400 mg PDR001 every four weeks (i.e., Q4W). The CXCR2 inhibitor is administered orally twice daily, approximately 12 hours apart, with approximately 240 mL of water on an empty stomach at least 1 hour before or 2 hours after a meal, at about the same time every day. Patients are instructed not to chew the medication but to swallow it whole. The CXCR2 inhibitor is administered at a starting dose of 75 mg BID, two weeks on/two weeks off in each 28-day cycle or one week on/two weeks off in each 21-day cycle. If tolerated, the dose may be escalated to 150 mg BID two weeks on/two weeks off or one week on/two weeks off. […] Multiple dose levels below the MTD may be evaluated simultaneously in order to obtain PK and PD data across a range of doses and to establish the MTD/RDE. […]
# [2] = system: neutrophils in whole human blood; assay: rhGROα-induced neutrophil shape change in whole human blood; assay type: cell-based
# [3] = system: neutrophils; assay: rhGROα-induced neutrophil migration; assay type: cell-based
# [4] = target: human CXCR2 receptor (Homo sapiens, UniProt P25025); details: membranes from CHO cells expressing human CXCR2 receptor
# Chain of human CXCR2 receptor (P25025 whole entry): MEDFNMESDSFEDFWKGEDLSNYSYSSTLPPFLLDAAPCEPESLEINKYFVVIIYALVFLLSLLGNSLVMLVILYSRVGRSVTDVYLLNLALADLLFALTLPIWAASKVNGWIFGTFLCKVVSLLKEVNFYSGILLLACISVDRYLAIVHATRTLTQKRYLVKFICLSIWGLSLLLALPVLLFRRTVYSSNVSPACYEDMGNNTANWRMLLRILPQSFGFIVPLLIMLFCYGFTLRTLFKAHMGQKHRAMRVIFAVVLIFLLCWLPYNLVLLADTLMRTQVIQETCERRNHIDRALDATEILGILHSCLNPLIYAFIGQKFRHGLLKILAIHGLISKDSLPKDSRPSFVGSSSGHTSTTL
# [5] = system: PBMCs from whole blood activated by SEB; assay type: cell-based, human
# [6] = system: MC38 tumors; assay: PD-L1 expression on tumor-infiltrating dendritic cells and macrophages in MC38 colon carcinoma mouse model; assay type: in vivo, C57BL/6 mice; details: combination BLZ945 200 mg/kg p.o. weekly + 5D12 10 mg/kg i.p. biweekly, day 9
# Experimental: C57BL/6 mice (Charles River Laboratories) were implanted with 1×10^6 MC38 cells subcutaneously. When tumors were 70-100 mm3 in size, mice were randomized into groups of 8 animals and treated with an anti-TIM-3 antibody (5D12), a CSF-1R binding agent (BLZ945), both 5D12 antibody and BLZ945, or with vehicle control. Mice were dosed orally (p.o.) or intraperitoneally (i.p.). The groups of mice were dosed as follows:
# Group 1) Vehicle p.o+antibody Isotype (mIgG1) i.p; Group 2) BLZ945 200 mg/kg p.o+antibody isotype (mIgG1) i.p; Group 3) Vehicle p.o+5D12 (mouse anti-TIM-3) 10 mg/kg i.p; Group 4) BLZ945 200 mg/kg p.o+5D12 (mouse anti-TIM-3) 10 mg/kg i.p. BLZ945 was dosed weekly and 5D12 was dosed biweekly.
# At Day 9 post-treatment initiation, mice were sacrificed. Tumors were harvested and processed into single cell suspensions for analysis by flow cytometry. The single cell suspension was generated using a combination of dispase, collagenase and DNase 1. The tumor infiltrating immune cells were analyzed by flow cytometry. Samples were acquired on a BD Fortessa and data was analyzed using Flowjo. Populations were defined as follows: dendritic cells (CD45+CD11b+Ly6C-MHC-II+Ly6G-F480−) and macrophages (CD45+CD11b+Ly6C-MHC-II+Ly6G-F480+). Levels of PD-L1 expression were analyzed as the mean fluorescence intensity of signal in the PD-L1 channel. […]
molecule,measurement,setting,value
"CCC(CC)Nc1c(Nc2ccc(Cl)c(S(=O)(=O)N(C)OC)c2O)c(=O)c1=O [6-chloro-3-((3,4-dioxo-2-(pentan-3-ylamino)cyclobut-1-en-1-yl)amino)-2-hydroxy-N-methoxy-N-methylbenzenesulfonamide choline salt]",dose limiting toxicity (DLT),[1],no patient has developed a DLT
same,neutrophil shape change induced by rhGROα,[2],dose-dependent inhibition
same,rhGROα-induced neutrophil migration,[3],dose-dependent inhibition
same,GROα and IL-8-stimulated [35S]GTPγS binding,[4],inhibits
"PDR001: anti-PD-1 antibody molecule (PD-1 inhibitor, Novartis), also known as Spartalizumab",EC50 in SEB activation assay,[5],0.5 µg/mL
same,EC50,[5]; read-out: EC50 in SEB activation assay,3.68 nM
same,dose limiting toxicity (DLT),[1],no patient has developed a DLT
"CNC(=O)c1cc(Oc2ccc3nc(N[C@@H]4CCCC[C@H]4O)sc3c2)ccn1 [BLZ945, 4-((2-(((1R,2R)-2-hydroxycyclohexyl)amino)benzo[d]thiazol-6-yl)oxy)-N-methylpicolinamide]",PD-L1 expression (mean fluorescence intensity) in F480+ and F480- tumor-infiltrating cells,[6],enhancement
B1,IL-2 production in the SEB assay on titration,[5]; increasing doses of LAG525 with fixed 0.5 ug/ml each of PDR001 and GWN323,dose-responsive production of IL-2
